Measurements taken from patent publication US11773087B2, “GLP-1R receptor agonist compound and use thereof” (SUZHOU VINCENTAGE PHARMA CO., LTD, priority 2020, dated 2023).
pEC50: −log10 of the molar value. Where two headings read alike, the source gives them in different places.

Key:
human GLP-1R receptor = biological target: T1, human GLP-1R receptor (Homo sapiens, UniProt P43220); assay: GLP-1R cAMP assay (HTRF, HEK293 cells expressing GLP-1R); assay type: cell-based; conditions: agonistic activity, GLP-1R HEK293 cells
T1 construct: expressed in transfected cells; host or cells: 'GLP-1R cells' (frozen vial)
Method: Test Embodiment 1: Activity Test of GLP-1R cAMP Assay
This experiment aims to verify the agonistic activity of the compound of the present disclosure on human GLP-1R receptor.
Compounds were diluted 4-fold starting at 100 μM from DMSO using Bravo for a total of 10 points.
The reference compound polypeptide GLP-1 (7-37) was diluted 4-fold starting from 500 nM in DMSO using Bravo for a total of 10 points.
b) Preparation of Cell Suspension: • 1) 1 vial of GLP-1R cells was quickly thawed in a 37° C. water bath. • 2) The suspension of the cells was transferred to 10 mL of HBSS in a 15 mL conical tube. • 3) The cells were centrifuged at 1000 rpm for 5 min at room temperature to precipitate the cells. • 4) The supernatant was gently aspirated, and being careful not to aspirate the cells. • 5) The cells were relaxed by flicking the precipitation, and then the cell precipitation was re-suspended in 10 mL of HBSS. A sterile pipette was used to move fluid up and down to remove clumps. • 6) The concentration of cells was counted and the cell viability on Vi-cell was determined. • 7) GLP-1R cells were re-suspended in the test buffer at a concentration of 2.0×E5/mL cells. • 8) 10 μL of GLP-1R cell was transferred to OptiPlate-384 well plate.
c) Transfer of Compound: • 1) 100 nL of compound was transferred to OptiPlate-384 plate using Echo Transfer. • 2) The plate was rotated at 1000 rpm for 5 seconds.
d) HTRF cAMP Analysis of Agonists: • 1) The plate was incubated at room temperature for 30 minutes before adding detection reagents. • 2) An electric multi-channel pipette was used to add 10 μL of detection reagents respectively. • 3) The 384 well plate was covered with TopSeal-A membrane and incubated for 60 min at room temperature.
TopSeal-A was unloaded and read on EnVision.

[1] = Pharmacokinetic evaluation in rats (gavage); assay type: in vivo; conditions: rat, 10 mg/kg single oral gavage, plasma
Method: Test Embodiment 2: Pharmacokinetic Evaluation in Rats
The drug concentrations in the plasma of rats were tested at different times after the administration of the compounds by gavage using rats as test animals. The pharmacokinetic behavior of the compounds of the present disclosure in rats was studied and their pharmacokinetic characteristics were evaluated. In each group of embodiments, 3 rats with similar body weight were selected and administered orally at a dose of 10 mg/kg for a single administration. Blood was collected from animals at 15 min, 30 min, 1 h, 2 h, 4 h, 6 h, 8 h, 12 h, 24 h time points after administration. The LC-MS/MS analysis method was used to detect the content of the compound in plasma, and the lower limit of quantification of the method was 20 ng/mL. Concentration data in plasma was counted using the metabolic kinetic data analysis software WinNonlin 7.0, and the pharmacokinetic parameters were calculated using the non-compartmental analysis (NCA), as shown in Table 2 below.
Drug configuration: A certain amount of drug was taken, added with 2% Klucel LF+0.1% Tween 80 aqueous solution to prepare a clear solution or a uniform suspension.
Administration: Rats were administered by gavage after overnight fasting at a dose of 10 mg/kg.
Operation: Rats were administered by gavage, and blood was collected from the tail vein before administration and 15 min, 30 min, 1 h, 2 h, 4 h, 6 h, 8 h, 12 h, 24 h after administration, placed in heparinized sample tubes, centrifuged at 4° C., 3500 rpm for 10 min to separate plasma, stored at −20° C., and fed 2 hours after administration.
Determination of the content of test compounds in rat plasma after drug administration by gavage: 50 μL of plasma samples were thawed at room temperature, added with 130 μL of internal standard working solution (1000 ng/mL, acetonitrile, tolbutamide), vortexed for about 1 min and then centrifuged for 10 min at 4° C. and 13000 rpm. 50 μL of supernatant was mixed with 100 μL of 50% acetonitrile in water, and then the sample was injected for LC/MS/MS analysis.

[2] = Pharmacokinetic evaluation of cynomolgus monkey (IV and oral); assay type: in vivo, cynomolgus monkeys; conditions: for AUC(0-t): read-out: AUC0-24 h
Method: Test Embodiment 3: Pharmacokinetic Evaluation of Cynomolgus Monkey
The drug concentrations in the plasma of cynomolgus monkeys were tested at different times after intravenous injection and oral administration of the compounds using cynomolgus monkeys as test animals. The pharmacokinetic behavior of the compounds of the present disclosure in cynomolgus monkeys was studied and their pharmacokinetic characteristics were evaluated. In each group of embodiments, 2 cynomolgus monkeys with similar body weight were selected, administered at a dose of 1 mg/kg by intravenous injection and at a dose of 50 mg/kg by oral administration for a single administration.
Age of cynomolgus monkeys at the time of administration: about 2-4 years old; body weight: 3.0-4.6 kg at the beginning of administration; 4 monkeys; sex: male.
Intravenous group: The final concentration of 0.5 mg/mL was prepared for intravenous administration, and the preparation solvent was 5% DMSO+45% PEG400+50% water, and the preparation was in a clarified solution.
Oral group: The final concentration of 10 mg/mL was prepared for oral administration, and the preparation solvent was 5% DMSO+45% PEG400+50% water, and the preparation was in homogeneous suspension.
Blood was collected from animals at 5 min, 15 min, 30 min, 1 h, 2 h, 4 h, 7 h, 12 h, 24 h time points after administration. The LC-MS/MS analysis method was used to detect the content of the compound in plasma, and the lower limit of quantification of the method was 20 ng/mL. Concentration data in plasma was counted using the metabolic kinetic data analysis software WinNonlin 7.0, and the pharmacokinetic parameters were calculated using the non-compartmental analysis (NCA), as shown in Table 3 below.
Determination of the content of test compounds in the plasma of cynomolgus monkeys after drug administration: After blood samples were collected, placed in a marked ice-bath centrifuge tube, and rapidly centrifuged to separate the plasma. Centrifugation conditions: 4000 rpm, 10 minutes, 4° C., and plasma was stored at −40° C. or less for testing.

T1 sequence (P43220 24-463): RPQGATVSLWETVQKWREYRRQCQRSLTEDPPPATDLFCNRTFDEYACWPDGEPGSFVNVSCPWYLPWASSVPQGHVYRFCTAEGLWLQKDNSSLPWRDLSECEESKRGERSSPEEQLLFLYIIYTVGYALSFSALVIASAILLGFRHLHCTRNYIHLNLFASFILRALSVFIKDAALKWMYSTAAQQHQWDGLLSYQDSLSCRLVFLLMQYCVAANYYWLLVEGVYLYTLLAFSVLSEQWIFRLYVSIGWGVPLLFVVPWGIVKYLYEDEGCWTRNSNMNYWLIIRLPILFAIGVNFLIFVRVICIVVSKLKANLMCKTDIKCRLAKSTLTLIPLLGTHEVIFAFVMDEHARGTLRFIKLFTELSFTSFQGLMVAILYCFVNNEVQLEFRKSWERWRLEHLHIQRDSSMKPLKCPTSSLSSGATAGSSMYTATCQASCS

SMILES | pEC50 (human GLP-1R receptor) | other results
CC1CN(Cc2nc3ccc(C(=O)O)cc3n2C[C@@H]2CCO2)CC(C)C1c1ccccc1OCc1ccc(Cl)cc1F (some centres unmarked) [Compound 30] | < 7.00 | 
O=C(O)c1ccc2nc(CN3CCC(c4ccccc4NCc4ccc(Cl)cc4F)CC3)n(C[C@@H]3CCO3)c2c1 [Compound 15] | 8.12 | 
O=C(O)c1ccc2nc(Cc3ccc(-c4ccccc4OCc4ccc(Cl)cc4F)cc3)n(C[C@@H]3CCO3)c2c1 [Compound 20] | 7.61 | 
CCn1cncc1Cn1c(CN2CCC(c3ccccc3OCc3ccc(Cl)cc3F)CC2)nc2ccc(C(=O)O)cc21 [Compound 25] | < 7.00 | 
O=C(O)c1ccc2nc(CC3CCC(c4ccccc4OCc4ccc(Cl)cc4F)CC3)n(C[C@@H]3CCO3)c2c1 (some centres unmarked) [Compound 21] | < 7.00 | 
O=C(O)c1ccc2nc(CN3CCC(c4ccccc4OCc4ccc(Cl)cn4)CC3)n(C[C@@H]3CCO3)c2c1 [Compound 9] | 7.46 | 
CC1CN(Cc2nc3ccc(C(=O)O)cc3n2C[C@@H]2CCO2)CCC1c1ccccc1OCc1ccc(Cl)cc1F (some centres unmarked) [Compound 29] | < 7.00 | 
O=C(O)c1ccc2nc(CN3CCC(c4ccccc4OCc4ccc(Cl)cc4F)CC3)n(C[C@@H]3CCO3)c2n1 [Compound 22] | 8.68 | 
Cn1c(CN2CCC(c3ccccc3OCc3ccc(Cl)cc3F)CC2)nc2ccc(C(=O)O)cc21 [Compound 24] | < 7.00 | 
N#Cc1ccc(COc2ccccc2C2CCN(Cc3nc4ccc(C(=O)O)cc4n3C[C@@H]3CCO3)CC2)c(F)c1 [Compound 1] | 8.47 | 
CN(Cc1ccc(Cl)cc1F)c1ccccc1C1CCN(Cc2nc3ccc(C(=O)O)cc3n2C[C@@H]2CCO2)CC1 [Compound 16] | < 7.00 | 
O=C(O)c1ccc2nc(CN3CCC(c4ccccc4SCc4ccc(Cl)cc4F)CC3)n(C[C@@H]3CCO3)c2c1 [Compound 17] | 7.28 | 
O=C(O)c1ccc2nc(C3(N4CCC(c5ccccc5OCc5ccc(Cl)cc5F)CC4)CC3)n(C[C@@H]3CCO3)c2c1 [Compound 23] | < 7.00 | 
N#Cc1ccc(COc2c(F)cccc2C2CCN(Cc3nc4ccc(C(=O)O)cc4n3C[C@@H]3CCO3)CC2)c(F)c1 [Compound 2] | 9.10 | 
CC(Oc1ccccc1C1CCN(Cc2nc3ccc(C(=O)O)cc3n2C[C@@H]2CCO2)CC1)c1ccc(Cl)cc1F (some centres unmarked) [Compound 10] | 7.59 | 
CC1(c2ccccc2OCc2ccc(Cl)cc2F)CCN(Cc2nc3ccc(C(=O)O)cc3n2C[C@@H]2CCO2)CC1 [Compound 28] | < 7.00 | 
O=C(O)c1ccc2nc(CN3CCN(c4ccccc4OCc4ccc(Cl)cc4F)CC3)n(C[C@@H]3CCO3)c2c1 [Compound 18] | 7.97 | 
N#Cc1ccc(COc2cccc(C3CCN(Cc4nc5ccc(C(=O)O)cc5n4C[C@@H]4CCO4)CC3)n2)c(F)c1 [PF-06882961, reference compound] |  | AUC(0-inf) [1]: 0.179 µg·h/mL; Cmax [1]: 0.055 µg/mL; Tmax [1]: 0.42 h; half-life [1]: 6.88 h; F ([2]; 50 mg/kg PO vs 1 mg/kg IV, oral bioavailability): 8.0%; Cmax ([2]; male, 1 mg/kg IV, plasma): 2.23 µg/mL; Tmax ([2]; male, 1 mg/kg IV, plasma): 0.083 h; clearance ([2]; male, 1 mg/kg IV, plasma): 0.956 L/h/kg; half-life ([2]; male, 1 mg/kg IV, plasma): 1.14 h; AUC(0-t) ([2]; male, 1 mg/kg IV, plasma): 1.07 µg·h/mL; Cmax ([2]; male, 50 mg/kg PO, plasma): 2.05 µg/mL; Tmax ([2]; male, 50 mg/kg PO, plasma): 1.75 h; half-life ([2]; male, 50 mg/kg PO, plasma): 10.9 h; concentration at 24 h ([2]; male, 50 mg/kg PO, plasma, 24 h, read-out: C24 h): 0.0414 µg/mL; AUC(0-t) ([2]; male, 50 mg/kg PO, plasma): 4.33 µg·h/mL
O=C(O)c1ccc2nc(CC3CCN(c4ccccc4OCc4ccc(Cl)cc4F)CC3)n(C[C@@H]3CCO3)c2c1 [Compound 19] | < 7.00 | 
O=C(O)c1ccc2nc(CN3CCC(c4cccc(F)c4OCc4ccccc4F)CC3)n(C[C@@H]3CCO3)c2c1 [Compound 7] | 8.30 | 

More lines, main results first:

pEC50 (human GLP-1R receptor) | SMILES | other results
9.00 | O=C(O)c1ccc2nc(CN3CCC(c4cccc(OCc5ccc(Cl)cc5F)n4)CC3)n(C[C@@H]3CCO3)c2c1 [Ref-01, reference compound] | AUC(0-inf) [1]: 0.351 µg·h/mL; Cmax [1]: 0.105 µg/mL; Tmax [1]: 0.33 h; half-life [1]: 3.2 h
8.49 | O=C(O)c1ccc2nc(CN3CCC(c4ccccc4OCc4ccc(F)cc4F)CC3)n(C[C@@H]3CCO3)c2c1 [Compound 8] | 
8.43 | O=C(O)c1ccc2nc(CN3CCC(c4cc(F)ccc4OCc4ccc(Cl)cc4F)CC3)n(C[C@@H]3CCO3)c2c1 [Compound 14] | 
9.00 | Cc1ccc(COc2ccccc2C2CCN(Cc3nc4ccc(C(=O)O)cc4n3C[C@@H]3CCO3)CC2)c(F)c1 [Compound 12] | AUC(0-inf) [1]: 1.32 µg·h/mL; Cmax [1]: 1.02 µg/mL; Tmax [1]: 0.25 h; half-life [1]: 2.68 h
8.74 | [2H]C([2H])(Oc1ccccc1C1CCN(Cc2nc3ccc(C(=O)O)cc3n2C[C@@H]2CCO2)CC1)c1ccc(Cl)cc1F [Compound 26] | 
8.64 | [2H]C([2H])(c1nc2ccc(C(=O)O)cc2n1C[C@@H]1CCO1)N1CCC(c2ccccc2OCc2ccc(Cl)cc2F)CC1 [Compound 27] | 
9.00 | O=C(O)c1ccc2nc(CN3CCC(c4cccnc4OCc4ccc(Cl)cc4F)CC3)n(C[C@@H]3CCO3)c2c1 [Ref-02, reference compound] | AUC(0-inf) [1]: 0.229 µg·h/mL; Cmax [1]: 0.171 µg/mL; Tmax [1]: 0.25 h; half-life [1]: 5.52 h
8.54 | O=C(O)c1ccc2nc(CN3CCC(c4ccccc4OCc4ccc(Cl)cc4Cl)CC3)n(C[C@@H]3CCO3)c2c1 [Compound 11] | 
8.09 | O=C(O)c1ccc2nc(CN3CCC(c4c(F)cccc4OCc4ccc(Cl)cc4F)CC3)n(C[C@@H]3CCO3)c2c1 [Compound 6] | 
7.82 | COc1cccc(C2CCN(Cc3nc4ccc(C(=O)O)cc4n3C[C@@H]3CCO3)CC2)c1OCc1ccc(Cl)cc1F [Compound 5] | 
8.24 | O=C(O)c1ccc2nc(CN3CCC(c4ccc(F)cc4OCc4ccc(Cl)cc4F)CC3)n(C[C@@H]3CCO3)c2c1 [Compound 13] | 
9.15 | O=C(O)c1ccc2nc(CN3CCC(c4cccc(F)c4OCc4ccc(Cl)cc4F)CC3)n(C[C@@H]3CCO3)c2c1 [Compound 4] | AUC(0-inf) [1]: 0.417 µg·h/mL; Cmax [1]: 0.09 µg/mL; Tmax [1]: 0.83 h; half-life [1]: 2.11 h
